Data as given in US10689354B2, “Aminoazole derivative” (Teijin Pharma Limited, priority 2015, dated 2020).

Columns and labels:
[1] = target: T1, androgen receptor (AR-LBD) (Rattus norvegicus, UniProt P15207); assay: Evaluation of androgen receptor affinity (PolarScreen Androgen Receptor Competitor Assay Kit, Red; fluorescence polarization); conditions: 22° C. for 5 hours, relative to binding rate of 1 μM DHT, read-out: AR affinity (pEC50) (converted)
T1 construct: 5 μL of 2×AR-LBD/Fluoromone AL Red Complex contained in the kit; purchased Invitrogen
T1 sequence (P15207 651-882 limits assumed): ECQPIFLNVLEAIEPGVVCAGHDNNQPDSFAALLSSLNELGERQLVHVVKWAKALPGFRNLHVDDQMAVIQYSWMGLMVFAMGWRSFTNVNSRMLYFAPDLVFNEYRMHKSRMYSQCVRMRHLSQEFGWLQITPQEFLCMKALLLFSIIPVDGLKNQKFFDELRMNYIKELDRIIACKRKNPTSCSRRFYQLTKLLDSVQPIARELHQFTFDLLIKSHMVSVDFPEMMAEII
Summary of the method: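 Compounds were mixed with AR-LBD/Fluoromone AL Red complex and incubated 5 h at 22° C before fluorescence polarization was read. Binding was expressed relative to 1 μM dihydrotestosterone, and pEC50 (concentration giving 50% of that binding) came from a 4-parameter fit.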

human androgen receptor = target: T2, human androgen receptor (Homo sapiens, UniProt P10275); assay: Reporter assay of an androgen receptor responsive sequence (luciferase, transiently transfected HEK293 cells); assay type: cell-based; conditions: 24 hours incubation, relative to activity of 100 nM DHT, read-out: AR transcriptive activity (pEC50) (converted)
T2 construct: expressed in transfected cells; host or cells: HEK293
T2 sequence (P10275 1-920): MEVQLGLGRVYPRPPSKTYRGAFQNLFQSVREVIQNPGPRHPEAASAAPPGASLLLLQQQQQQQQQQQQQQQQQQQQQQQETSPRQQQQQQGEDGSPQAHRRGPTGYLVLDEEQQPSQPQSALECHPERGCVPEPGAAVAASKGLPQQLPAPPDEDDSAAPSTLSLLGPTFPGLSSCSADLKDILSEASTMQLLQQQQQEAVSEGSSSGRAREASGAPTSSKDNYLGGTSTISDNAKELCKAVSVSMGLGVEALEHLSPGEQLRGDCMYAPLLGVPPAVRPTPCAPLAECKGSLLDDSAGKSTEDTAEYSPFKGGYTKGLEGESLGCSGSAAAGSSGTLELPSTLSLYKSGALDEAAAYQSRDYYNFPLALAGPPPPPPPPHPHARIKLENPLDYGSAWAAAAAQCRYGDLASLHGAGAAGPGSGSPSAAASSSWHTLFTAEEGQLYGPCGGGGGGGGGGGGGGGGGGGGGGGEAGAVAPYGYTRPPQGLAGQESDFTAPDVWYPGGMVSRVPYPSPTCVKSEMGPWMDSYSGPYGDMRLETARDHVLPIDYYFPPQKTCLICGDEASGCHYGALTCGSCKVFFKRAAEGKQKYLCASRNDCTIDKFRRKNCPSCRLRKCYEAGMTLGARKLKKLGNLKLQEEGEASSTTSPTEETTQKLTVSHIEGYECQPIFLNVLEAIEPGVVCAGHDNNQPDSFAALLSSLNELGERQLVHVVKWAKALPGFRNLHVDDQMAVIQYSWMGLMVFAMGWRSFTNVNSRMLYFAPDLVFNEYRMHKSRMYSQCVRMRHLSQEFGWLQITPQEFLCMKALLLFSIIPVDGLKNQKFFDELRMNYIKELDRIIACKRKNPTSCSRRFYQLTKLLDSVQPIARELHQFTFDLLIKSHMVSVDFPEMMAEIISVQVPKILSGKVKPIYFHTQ
Summary of the method: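 HEK293 cells transiently transfected for 3 h with ARE-firefly luciferase, full-length human AR and TK-Renilla plasmids, then exposed to compound for 24 h at 37 °C in 5% charcoal-treated FBS/DMEM. Dual-Glo luminescence read; pEC50 from 4-parameter fit relative to 100 nM DHT.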

EC50 [1] [nM]	EC50 (human androgen receptor) [nM]	Compound
31.6	39.8	CS(=O)(=O)NC(=O)c1nc(N(Cc2cc3ccccc3s2)c2ccc(C#N)cc2)sc1Br [Compound 609, 2-[N-(benzothiophen-2-ylmethyl)-4-cyano-anilino]-5-bromo-N-methylsulfonyl-thiazole-4-carboxamide]
100	2510	Cc1oc(N(Cc2ccc(F)cc2)c2ccc(C#N)cc2)nc1C(=O)NS(C)(=O)=O [Compound 610, 2-[4-cyano-N-[(4-fluorophenyl)methyl]anilino]-5-methyl-N-methylsulfonyl-oxazole-4-carboxamide]
79.4	2000	Cc1oc(N(Cc2cccc(Cl)c2)c2ccc(C#N)cc2)nc1C(=O)NS(C)(=O)=O [Compound 611, 2-[N-[(3-chlorophenyl)methyl]-4-cyano-anilino]-5-methyl-N-methylsulfonyl-oxazole-4-carboxamide]
126	3980	Cc1oc(N(Cc2cccc(F)c2)c2ccc(C#N)cc2)nc1C(=O)NS(C)(=O)=O [Compound 612, 2-[4-cyano-N-[(3-fluorophenyl)methyl]anilino]-5-methyl-N-methylsulfonyl-oxazole-4-carboxamide]
25.1	> 10000	Cc1oc(N(Cc2cccc(OC(F)(F)F)c2)c2ccc(C#N)cc2)nc1C(=O)NS(C)(=O)=O [Compound 613, 2-[4-cyano-N-[[3-(trifluoromethoxy)phenyl]methyl]anilino]-5-methyl-N-methylsulfonyl-oxazole-4-carboxamide]
200	> 10000	Cc1oc(N(Cc2ccccc2OC(F)F)c2ccc(C#N)cc2)nc1C(=O)NS(C)(=O)=O [Compound 614, 2-[4-cyano-N-[[2-(difluoromethoxy)phenyl]methyl]anilino]-5-methyl-N-methylsulfonyl-oxazole-4-carboxamide]
251	> 10000	Cc1oc(N(Cc2ccc3ncsc3c2)c2ccc(C#N)cc2)nc1C(=O)NS(C)(=O)=O [Compound 616, 2-[N-(1,3-benzothiazol-6-ylmethyl)-4-cyano-anilino]-5-methyl-N-methylsulfonyl-oxazole-4-carboxamide]
251	> 10000	Cc1oc(N(Cc2cccc(C#N)c2)c2ccc(C#N)cc2)nc1C(=O)NS(C)(=O)=O [Compound 617, 2-[4-cyano-N-[(3-cyanophenyl)methyl]anilino]-5-methyl-N-methylsulfonyl-oxazole-4-carboxamide]
20	126	Cc1oc(N(Cc2cc3ccccc3s2)c2ccc(C#N)cc2)nc1C(=O)NS(C)(=O)=O [Compound 618, 2-[N-(benzothiophen-2-ylmethyl)-4-cyano-anilino]-5-methyl-N-methylsulfonyl-oxazole-4-carboxamide]
631	> 10000	Cc1oc(N(Cc2ccccc2)c2ccc(C(F)(F)F)nc2)nc1C(=O)NS(C)(=O)=O [Compound 620, 2-[benzyl-[6-(trifluoromethyl)-3-pyridyl]amino]-5-methyl-N-methylsulfonyl-oxazole-4-carboxamide]
> 2000	> 10000	Cc1oc(N(CC2CCC(F)(F)CC2)c2ccc(C#N)cc2)nc1C(=O)NS(C)(=O)=O [Compound 621, 2-[4-cyano-N-[(4,4-difluorocyclohexyl)methyl]anilino]-5-methyl-N-methylsulfonyl-oxazole-4-carboxamide]
79.4	> 10000	Cc1oc(N(CCC2CCCC2)c2ccc(C#N)cc2)nc1C(=O)NS(C)(=O)=O [Compound 622, 2-[4-cyano-N-(2-cyclopentylethyl)anilino]-5-methyl-N-methylsulfonyl-oxazole-4-carboxamide]
31.6	158	CCc1oc(N(Cc2ccc(Cl)cc2)c2ccc(C#N)cc2)nc1C(=O)NS(C)(=O)=O [Compound 623, 2-[N-[(4-chlorophenyl)methyl]-4-cyano-anilino]-5-ethyl-N-methylsulfonyl-oxazole-4-carboxamide]
251	3980	Cc1oc(N(CCc2ccccc2)c2ccc(C#N)cc2)nc1C(=O)NS(C)(=O)=O [Compound 625, 2-[4-cyano-N-(2-phenylethyl)anilino]-5-methyl-N-methylsulfonyl-oxazole-4-carboxamide]
15.8	79.4	CCc1oc(N(Cc2cc3ccccc3s2)c2ccc(C#N)cc2)nc1C(=O)NS(C)(=O)=O [Compound 626, 2-[N-(benzothiophen-2-ylmethyl)-4-cyano-anilino]-5-ethyl-N-methylsulfonyl-oxazole-4-carboxamide]
50.1	1000	CCS(=O)(=O)NC(=O)c1nc(N(Cc2ccc(Cl)cc2)c2ccc(C#N)cc2)oc1C [Compound 627, 2-[N-[(4-chlorophenyl)methyl]-4-cyano-anilino]-N-ethylsulfonyl-5-methyl-oxazole-4-carboxamide]
200	> 10000	Cc1oc(N(Cc2ccc(Cl)cc2)c2ccc(C#N)cc2)nc1C(=O)NS(=O)(=O)C1CC1 [Compound 628, 2-[N-[(4-chlorophenyl)methyl]-4-cyano-anilino]-N-cyclopropylsulfonyl-5-methyl-oxazole-4-carboxamide]
158	2510	Cc1oc(N(Cc2nc3ccccc3s2)c2ccc(C#N)cc2)nc1C(=O)NS(C)(=O)=O [Compound 630, 2-[N-(1,3-benzothiazol-2-ylmethyl)-4-cyano-anilino]-5-methyl-N-methylsulfonyl-oxazole-4-carboxamide]
39.8	794	CCc1oc(N(Cc2cccc(Cl)c2)c2ccc(C#N)cc2)nc1C(=O)NS(C)(=O)=O [Compound 631, 2-[N-[(3-chlorophenyl)methyl]-4-cyano-anilino]-5-ethyl-N-methylsulfonyl-oxazole-4-carboxamide]
39.8	1000	CCc1oc(N(Cc2ccc(OC(F)(F)F)cc2)c2ccc(C#N)cc2)nc1C(=O)NS(C)(=O)=O [Compound 632, 2-[4-cyano-N-[[4-(trifluoromethoxy)phenyl]methyl]anilino]-5-ethyl-N-methylsulfonyl-oxazole-4-carboxamide]
31.6	126	CCc1oc(N(Cc2ccc(Cl)c(Cl)c2)c2ccc(C#N)cc2)nc1C(=O)NS(C)(=O)=O [Compound 633, 2-[4-cyano-N-[(3,4-dichlorophenyl)methyl]anilino]-5-ethyl-N-methylsulfonyl-oxazole-4-carboxamide]
39.8	398	CCc1oc(N(Cc2ccc(OC(F)F)cc2)c2ccc(C#N)cc2)nc1C(=O)NS(C)(=O)=O [Compound 634, 2-[4-cyano-N-[[4-(difluoromethoxy)phenyl]methyl]anilino]-5-ethyl-N-methylsulfonyl-oxazole-4-carboxamide]
398	> 10000	CCc1oc(N(Cc2ccc(OC(F)F)cn2)c2ccc(C#N)cc2)nc1C(=O)NS(C)(=O)=O [Compound 635, 2-[4-cyano-N-[[5-(difluoromethoxy)-2-pyridyl]methyl]anilino]-5-ethyl-N-methylsulfonyl-oxazole-4-carboxamide]
398	1580	CCc1oc(N(Cc2ccc(Br)cn2)c2ccc(C#N)cc2)nc1C(=O)NS(C)(=O)=O [Compound 636, 2-[N-[(5-bromo-2-pyridyl)methyl]-4-cyano-anilino]-5-ethyl-N-methylsulfonyl-oxazole-4-carboxamide]
158	> 10000	CCc1oc(N(Cc2ccccc2OC(F)F)c2ccc(C#N)cc2)nc1C(=O)NS(C)(=O)=O [Compound 637, 2-[4-cyano-N-[[2-(difluoromethoxy)phenyl]methyl]anilino]-5-ethyl-N-methylsulfonyl-oxazole-4-carboxamide]
